Three compounds from ChEMBL document CHEMBL5543142, “Discovery of YFJ-36: Design, Synthesis, and Antibacterial Activities of Catechol-Conjugated β-Lactams against Gram-Negative Bacteria” (J Med Chem, 2024) can be followed below.

Data set [1] deals with Acinetobacter baumannii. As to the kind of experiment: Antibacterial activity against multidrug-resistant Acinetobacter baumannii BM-2023-D2-010 infected in ICR mouse assessed as survival rate at 6.72 mg/kg,iv after 1 and 5 hour of post-infection measured after 7 days relative to control. It is filed as functional. As to conditions: time 7 day.
Data set [2] relates to Acinetobacter baumannii. Nature of the data set: Antibacterial activity against multidrug-resistant Acinetobacter baumannii BM-2023-D2-010 infected in ICR mouse assessed as survival rate at 4.71 mg/kg,iv after 1 and 5 hour of post-infection measured after 7 days relative to control. Particulars: time 7 day. It is filed as functional.
In data set [3] the test system is Acinetobacter baumannii. Nature of the data set: Antibacterial activity against multidrug-resistant Acinetobacter baumannii BM-2023-D2-010 infected in ICR mouse assessed as survival rate at 13.7 mg/kg,iv after 1 and 5 hour of post-infection measured after 7 days relative to control. As to conditions: time 7 day. It is filed as functional.
The test system of data set [4] is Acinetobacter baumannii. Nature of the data set: Antibacterial activity against multidrug-resistant Acinetobacter baumannii BM-2023-D2-010 infected in ICR mouse assessed as survival rate at 9.6 mg/kg,iv after 1 and 5 hour of post-infection measured after 7 days relative to control. It is filed as functional. As to conditions: time 7 day.
Data set [5] can be described thus: Half life in ICR mouse at 20 mg/kg,iv administration measured upto 6 hrs by LC-MS/MS analysis. The data set is classed as ADME, organism-based. As to conditions: in vivo.
Data set [6] deals with Acinetobacter baumannii. Nature of the data set: Antibacterial activity against multidrug-resistant Acinetobacter baumannii BM-2023-D2-010 infected in ICR mouse assessed as survival rate at 19.6 mg/kg,iv after 1 and 5 hour of post-infection measured after 7 days relative to control. Particulars: time 7 day. It is filed as functional.
A short description of data set [7]: Volume of distribution at steady state in ICR mouse at 20 mg/kg,iv administration measured upto 6 hrs by LC-MS/MS analysis. The data set is classed as ADME, organism-based. Particulars: in vivo, read-out: Vdss.
Data set [8] in a line: Clearance in ICR mouse at 20 mg/kg,iv administration measured upto 6 hrs by LC-MS/MS analysis. It is filed as ADME, organism-based. Particulars: in vivo.
A short description of data set [9]: MRT in ICR mouse at 20 mg/kg,iv administration measured upto 6 hrs by LC-MS/MS analysis. The data set is classed as ADME, organism-based. As to conditions: in vivo.
In data set [10] the test system is Acinetobacter baumannii. Nature of the data set: Antibacterial activity against multidrug-resistant Acinetobacter baumannii BM-2023-D2-010 infected in ICR mouse assessed as survival rate at 40 mg/kg,iv after 1 and 5 hour of post-infection measured after 7 days relative to control. The data set is classed as functional. Particulars: time 7 day.
For data set [11], the system named is Acinetobacter baumannii. Nature of the data set: Antibacterial activity against multidrug-resistant Acinetobacter baumannii BM-2023-D2-010 infected in ICR mouse assessed as survival rate at 28 mg/kg,iv after 1 and 5 hour of post-infection measured after 7 days relative to control. The data set is classed as functional. Particulars: time 7 day.
Data set [12] in a line: AUC (0 to infinity) in ICR mouse at 20 mg/kg,iv administration measured upto 6 hrs by LC-MS/MS analysis. It is filed as ADME, organism-based. As to conditions: in vivo.
Data set [13] deals with Acinetobacter baumannii. As to the kind of experiment: Antibacterial activity against multidrug-resistant Acinetobacter baumannii BM-2023-D2-010 infected in ICR mouse assessed as survival rate at 3.3 mg/kg,iv after 1 and 5 hour of post-infection measured after 7 days relative to control. The data set is classed as functional. As to conditions: time 7 day.
Data set [14] is described as follows: AUC (0 to infinity) in Sprague-Dawley rat at 5 mg/kg,iv administration measured upto 4 hrs by LC-MS/MS analysis. It is filed as ADME, organism-based. As to conditions: in vivo.
The nature of data set [15]: MRT in ICR mouse at 20 mg/kg,iv administration measured upto 4 hrs by LC-MS/MS analysis. As to conditions: in vivo. It is filed as ADME, organism-based.
Data set [16] in a line: Half life in Sprague-Dawley rat at 5 mg/kg,iv administration measured upto 4 hrs by LC-MS/MS analysis. It is filed as ADME, organism-based. Particulars: in vivo.
Data set [17] can be described thus: Volume of distribution at steady state in Sprague-Dawley rat at 5 mg/kg,iv administration measured upto 4 hrs by LC-MS/MS analysis. The data set is classed as ADME, organism-based. Particulars: in vivo, read-out: Vdss.
Data set [18] can be described thus: Clearance in Sprague-Dawley rat at 5 mg/kg,iv administration measured upto 4 hrs by LC-MS/MS analysis. The data set is classed as ADME, organism-based. As to conditions: in vivo.
The nature of data set [19]: Volume of distribution at steady state in ICR mouse at 20 mg/kg,iv administration measured upto 4 hrs by LC-MS/MS analysis. The data set is classed as ADME, organism-based. Particulars: in vivo, read-out: Vdss.
Data set [20] in a line: Clearance in ICR mouse at 20 mg/kg,iv administration measured upto 4 hrs by LC-MS/MS analysis. The data set is classed as ADME, organism-based. Particulars: in vivo.
The nature of data set [21]: Half life in ICR mouse at 20 mg/kg,iv administration measured upto 4 hrs by LC-MS/MS analysis. The data set is classed as ADME, organism-based. As to conditions: in vivo.
A short description of data set [22]: AUC (0 to infinity) in ICR mouse at 20 mg/kg,iv administration measured upto 4 hrs by LC-MS/MS analysis. The data set is classed as ADME, organism-based. Particulars: in vivo.
Data set [23] in a line: MRT in Sprague-Dawley rat at 5 mg/kg,iv administration measured upto 4 hrs by LC-MS/MS analysis. It is filed as ADME, organism-based. As to conditions: in vivo.
A further data set deals with hERG (KCNH2) (Homo sapiens, UniProt Q12809). Nature of the data set: Inhibition of hERG at 3 uM by whole cell Qpatch assay relative to control. The data set is classed as toxicity. A general note: The hERG channel carries a current that helps repolarise heart muscle cells.
hERG (KCNH2), sequence (Q12809 whole entry): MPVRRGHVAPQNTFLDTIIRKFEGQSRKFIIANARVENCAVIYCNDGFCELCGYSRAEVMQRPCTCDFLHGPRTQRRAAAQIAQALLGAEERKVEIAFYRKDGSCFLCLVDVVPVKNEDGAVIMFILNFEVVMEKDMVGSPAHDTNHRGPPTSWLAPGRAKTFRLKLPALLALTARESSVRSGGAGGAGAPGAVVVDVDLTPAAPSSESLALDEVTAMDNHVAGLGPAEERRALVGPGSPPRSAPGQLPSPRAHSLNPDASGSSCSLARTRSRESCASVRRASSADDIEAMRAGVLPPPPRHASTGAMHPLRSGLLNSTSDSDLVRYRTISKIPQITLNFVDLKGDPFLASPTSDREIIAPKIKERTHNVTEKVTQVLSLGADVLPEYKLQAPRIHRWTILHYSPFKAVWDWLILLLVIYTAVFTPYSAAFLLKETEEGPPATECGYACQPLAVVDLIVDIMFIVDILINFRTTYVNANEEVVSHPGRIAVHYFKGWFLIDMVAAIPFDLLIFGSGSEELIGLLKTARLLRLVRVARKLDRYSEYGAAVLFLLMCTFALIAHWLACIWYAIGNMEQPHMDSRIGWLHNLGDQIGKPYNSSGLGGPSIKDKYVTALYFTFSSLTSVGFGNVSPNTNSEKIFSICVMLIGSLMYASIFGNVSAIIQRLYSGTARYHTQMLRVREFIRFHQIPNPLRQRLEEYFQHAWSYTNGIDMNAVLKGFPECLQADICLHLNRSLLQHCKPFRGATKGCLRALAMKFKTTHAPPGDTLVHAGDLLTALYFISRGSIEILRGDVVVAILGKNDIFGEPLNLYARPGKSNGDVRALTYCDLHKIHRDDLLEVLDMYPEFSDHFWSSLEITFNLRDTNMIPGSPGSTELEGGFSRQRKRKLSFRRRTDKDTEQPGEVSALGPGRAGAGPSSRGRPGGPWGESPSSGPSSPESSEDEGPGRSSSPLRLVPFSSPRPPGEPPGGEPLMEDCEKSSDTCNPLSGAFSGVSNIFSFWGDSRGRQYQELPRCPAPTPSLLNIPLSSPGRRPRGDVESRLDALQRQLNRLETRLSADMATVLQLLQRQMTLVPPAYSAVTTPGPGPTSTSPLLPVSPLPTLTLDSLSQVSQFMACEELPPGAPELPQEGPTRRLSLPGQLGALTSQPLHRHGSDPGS

Molecules are shown by their SMILES.

As to `CC(C)(O/N=C(\C(=O)N[C@@H]1C(=O)N2C(C(=O)[O-])=C(C[N+]3(CCNC(=O)c4ccc(O)c(O)c4Cl)CCCC3)CS[C@H]12)c1csc(N)n1)C(=O)[O-].[Na+]`, the Activity in the data set on Acinetobacter baumannii [1] came out at 50%; with Acinetobacter baumannii [2], 20%; in the data set on Acinetobacter baumannii [3] it was 100%; in the data set on Acinetobacter baumannii [4] it was 70%; in the data set with Acinetobacter baumannii [6], 100%; with Acinetobacter baumannii [10] it was 100%. For the same compound, the Activity is 100% in the data set with Acinetobacter baumannii [11] and 0% in the data set with Acinetobacter baumannii [13]. The compound also had a half-life in data set [5] of 16.2 min. The Vd in data set [7] turned out to be 0.488 L/kg. The same compound yielded a clearance in [8] of 29.2 mL/min/kg. The same compound yielded a mean residence time MRT in data set [9] of 16.8 min. The same compound yielded a total exposure AUC(0-inf) in data set [12] of 11600 ng·h/mL.
For the compound `Nc1nc(/C(=N/O[C@@H](C(=O)[O-])C2CCC(F)(F)CC2)C(=O)N[C@@H]2C(=O)N3C(C(=O)O)=C(CSCCNC(=O)c4ccc(O)c(O)c4Cl)CS[C@H]23)cs1.[Na+]`, the Activity with Acinetobacter baumannii [1] amounted to 30%; in the data set on Acinetobacter baumannii [2] it was 20%; in the data set on Acinetobacter baumannii [3] it was 100%; with Acinetobacter baumannii [4], 70%; in the data set on Acinetobacter baumannii [6], 100%; in the data set with Acinetobacter baumannii [10], 100%. In the data set with Acinetobacter baumannii [11], the Activity was 100%. Further, the AUC(0-inf) in data set [14] worked out at 2260 ng·h/mL; in data set [22], 8910 ng·h/mL. In addition, the MRT in data set [15] and in [23] was 9.6 min each time. Also, the half-life in data set [16] was 13.8 min; in [21], 29.4 min. The Vd in data set [17] stood at 0.37 L/kg; in [19], 0.488 L/kg. The clearance in data set [18] was determined as 38.7 mL/min/kg; in data set [20] it was 49.8 mL/min/kg.
Consider `COc1cc(N)c(Cl)cc1C(=O)N[C@H]1CCN(CCCOc2ccc(F)cc2)C[C@H]1OC` [REL-CISAPRIDE], for which the inhibition at 3 µM on hERG (KCNH2) turned out to be 97.8%.

The half-life is the time in which the quantity being followed falls by half. The low end stands for rapid decline, the high end for slow decline. Usually clearance stands for the volume of plasma or blood freed of the substance per unit of time. A lower clearance goes with inefficient removal. As a reminder, the MRT is a mean duration of stay, worked out from the concentration-time curve. Usually AUC(0-inf) stands for the area under the concentration-time curve extrapolated to infinity. Low values mean less exposure, high ones more exposure. The inhibition is the change of the read-out against control, counted positive when it falls.
